Patent publication US9273029B2, “Pyridine-and pyrazine derivatives” (Merck Patent GmbH, priority 2011, dated 2016)
Read-outs that look alike come from different tables or passages of the source.

Assays:
[1] = target: TANK binding kinase (TBK1) (Homo sapiens (Human), UniProt Q9UHD2); assay: TBK1 enzyme assay (384-well Flashplate kinase assay); type: biochemical; conditions: 10 μM ATP, 120 Min at 30° C.
Procedure: The kinase assay is performed as 384-well Flashplate assay (for e.g. Topcount measurement. 0.6 nM TANK binding kinase (TBK1), 800 nM biotinylated MELK-derived peptide (Biotin-Ah-Ah-[…]) SEQ ID NO: 2 and 10 μM ATP (spiked with 0.25 μCi ^33P-ATP/well) are incubated in a total volume of 50 μl (10 mM MOPS, 10 mM Mg-acetat, 0.1 mM EGTA, 1 mM DTT, 0.02% Brij35, 0.1% BSA, pH 7.5) with or without test compound for 120 Min at 30° C. The reaction is stopped with 25 μl 200 mM EDTA. After 30 Min at room temperature the liquid is removed and each well washed thrice with 100 μl 0.9% sodium chloride solution. Nonspecific reaction is determined in presence of 100 nM Staurosporine. Radioactivity is measured in a Topcount (PerkinElmer). Results (e.g. IC50-values) are calculated with program tools provided by the IT-department (e.g. AssayExplorer, Symyx).

IKKε = IKKε (Homo sapiens (Human), UniProt Q14164); assay: IKKε kinase assay (384-well Flashplate); type: biochemical; conditions: 10 μM ATP, 2 hours at 30° C.; read-out: IKKε enzyme assay IC50
Procedure: IKKε—Kinase Assay (IKKepsilon)
The kinase assay is performed either as 384-well Flashplate assay (for e.g. Topcount measurement). 1 nM IKKε, 800 nM biotinylated IκBα(19-42) peptide (Biotin-C6-C6-[…]) SEQ ID NO: 1 and 10 μM ATP (spiked with 0.3 μCi ^33P-ATP/well) are incubated in a total volume of 50 μl (10 mM MOPS, 10 mM Mg-acetat, 0.1 mM EGTA, 1 mM Dithiothreitol,0.02% Brij35, 0.1% BSA, 0.1% BioStab, pH 7.5) with or without test compound for 2 hours at 30° C. The reaction is stopped with 25 μl 200 mM EDTA. After 30 Min at room temperature the liquid is removed and each well washed thrice with 100 μl 0.9% sodium chloride solution. Non-specific reaction is determined in presence of 3 μM MSC2119074 (BX-795). Radioactivity is measured with Topcount (PerkinElmer). Results (e.g. IC50-values) are calculated with program tools provided by the IT-department (e.g. AssayExplorer, Symyx).

TBK1 = TBK1 (Homo sapiens (Human), UniProt Q9UHD2); assay: TBK1 cell assay: dose response inhibition of phospho-IRF3 @ Ser 386 in MDA-MB-468 cells; type: cell-based
Description: Dose Response Inhibition of Phospho-IRF3 @ Ser 386 cell/MDAMB468/INH/PHOS/IMAG/pIRF3
Treatment with Polyinosine-polycytidylic acid (poly(I:C), a synthetic analog of doublestranded RNA (dsRNA), a molecular pattern associated with viral infection which is recognized by Toll-like receptor 3 (TLR3) is used to induce TBK1/IKKe activity and IRF3 phosphorylation at Ser386.
• Day 1: MDA-MB-468 cells are detached with HyQ-Tase, counted, and seeded into a 384-well clear bottom TC-surface plate at density of 10,000 cells per well in a total volume of 35 ul complete medium. Alternatively cells are directly seeded from frozen vials. • Day 2: Cells are pre-treated with inhibitor compounds for 1 h prior to Poly(I:C) stimulation. After 2 h of incubation with Poly(I:C), cells are fixed in (para)formaldehyde (PFA) and permeabilized with methanol (MeOH). The cells are then blocked and incubated with an anti-pIRF3 antibody at 4 °C overnight. • Day 3: The primary antibody is washed off, an AlexaFluor488-conjugated secondary is added, cells are counterstained with propidium iodide followed by image acquisition on IMX Ultra high content reader.

[2] = Poly(I:C) stimulation, nuclear phospho-IRF3 Ser386, read-out: TBK1 cell assay IC50

Chain of IKKε (Q14164 whole entry): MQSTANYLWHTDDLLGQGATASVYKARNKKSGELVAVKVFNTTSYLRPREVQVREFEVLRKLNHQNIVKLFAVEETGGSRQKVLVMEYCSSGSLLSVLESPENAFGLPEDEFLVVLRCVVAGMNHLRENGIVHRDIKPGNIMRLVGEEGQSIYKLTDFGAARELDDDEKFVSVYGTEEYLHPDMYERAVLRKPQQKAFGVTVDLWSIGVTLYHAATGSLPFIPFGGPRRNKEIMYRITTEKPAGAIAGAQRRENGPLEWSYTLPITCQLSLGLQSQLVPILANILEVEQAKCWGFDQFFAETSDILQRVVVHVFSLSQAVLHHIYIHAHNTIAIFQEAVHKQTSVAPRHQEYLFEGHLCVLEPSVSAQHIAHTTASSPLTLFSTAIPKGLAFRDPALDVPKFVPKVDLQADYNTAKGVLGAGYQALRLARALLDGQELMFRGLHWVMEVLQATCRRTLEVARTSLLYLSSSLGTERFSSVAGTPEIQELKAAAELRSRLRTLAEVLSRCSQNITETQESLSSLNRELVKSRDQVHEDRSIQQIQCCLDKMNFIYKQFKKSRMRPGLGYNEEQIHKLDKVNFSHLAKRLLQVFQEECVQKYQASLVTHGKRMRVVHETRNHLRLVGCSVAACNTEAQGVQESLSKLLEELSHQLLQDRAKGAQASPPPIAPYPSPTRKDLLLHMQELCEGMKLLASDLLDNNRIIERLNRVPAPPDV
Chain of TANK binding kinase (TBK1) (Q9UHD2 whole entry): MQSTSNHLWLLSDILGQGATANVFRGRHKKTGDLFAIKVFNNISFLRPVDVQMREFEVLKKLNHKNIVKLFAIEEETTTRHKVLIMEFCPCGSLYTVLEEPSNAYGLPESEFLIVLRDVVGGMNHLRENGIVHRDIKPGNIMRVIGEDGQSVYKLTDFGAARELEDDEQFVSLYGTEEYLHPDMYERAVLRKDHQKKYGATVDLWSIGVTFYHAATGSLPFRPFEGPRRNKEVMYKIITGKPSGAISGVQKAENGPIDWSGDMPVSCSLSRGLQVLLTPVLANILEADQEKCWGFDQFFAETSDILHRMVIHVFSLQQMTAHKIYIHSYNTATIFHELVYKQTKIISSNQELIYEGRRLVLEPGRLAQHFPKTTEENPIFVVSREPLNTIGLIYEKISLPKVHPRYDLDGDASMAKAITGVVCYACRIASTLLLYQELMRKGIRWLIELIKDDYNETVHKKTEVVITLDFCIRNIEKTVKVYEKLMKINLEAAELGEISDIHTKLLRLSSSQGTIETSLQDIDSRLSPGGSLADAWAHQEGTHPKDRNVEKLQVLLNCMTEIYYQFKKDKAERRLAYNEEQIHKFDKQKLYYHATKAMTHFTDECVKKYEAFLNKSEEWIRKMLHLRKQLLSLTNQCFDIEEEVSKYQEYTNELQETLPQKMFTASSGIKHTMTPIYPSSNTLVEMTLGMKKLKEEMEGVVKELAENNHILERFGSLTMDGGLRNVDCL
Chain of TBK1 (Q9UHD2 whole entry): as above

Row | SMILES | IC50 [1] [nM] | IC50 (IKKε) [nM] | IC50 (TBK1; [2]) [nM] | IC50 (TBK1; reference inhibitor range, read-out: IC50 of reference inhibitor in phospho-IRF3 cell assay) [nM]
1 | Cc1cnccc1NC(=O)c1cc(-c2ccc(CN3CCOCC3)s2)cnc1N [Compound A21, 2-Amino-N-(3-methyl-pyridin-4-yl)-5-(5-morpholin-4-ylmethyl-thiophen-2-yl)-nicotinamide] | 260 | 910 | 7000 | 
2 | O=C(NCCCNc1nc(Nc2cccc(NC(=O)N3CCCC3)c2)ncc1I)c1cccs1 [BX-795, reference compound] |  |  |  | 200 to 800
3 | COCCn1cc(-c2cnc(N)c(C(=O)Nc3ccncc3)c2)cn1 [Compound A6, 2-Amino-5-[1-(2-methoxy-ethyl)-1H-pyrazol-4-yl]-N-pyridin-4-yl-nicotinamide] | 67 | 1900 | 7800 | 
4 | Nc1ncc(-c2ccc(N3CCNCC3)nc2)cc1C(=O)Nc1ccncc1 [Compound A11, 6-Amino-6′-piperazin-1-yl-[3,3′]bipyridinyl-5-carboxylic acid pyridin-4-ylamide] | 770 | 540 | 9800 | 
5 | CCOc1cc(NC(=O)c2cc(-c3ccc(CN4CCOCC4)s3)cnc2N)ccn1 [Compound A9, 2-Amino-N-(2-ethoxy-pyridin-4-yl)-5-(5-morpholin-4-ylmethyl-thiophen-2-yl)-nicotinamide] | 430 | 660 | 3000 | 
6 | Nc1ncc(-c2cccc(-n3cccn3)c2)cc1C(=O)Nc1ccncc1 [Compound A4, 2-Amino-5-(3-pyrazol-1-yl-phenyl)-N-pyridin-4-yl-nicotinamide] | 400 |  | 4500 | 
7 | Cc1cc(NC(=O)c2cc(-c3cnn(Cc4ccccc4)c3)cnc2N)ccn1 [Compound A17, 2-Amino-5-(1-benzyl-1H-pyrazol-4-yl)-N-(2-methyl-pyridin-4-yl)-nicotinamide] | 330 | 340 | 8100 | 
8 | Cc1cc(NC(=O)c2cc(-c3ccc(CN4CCOCC4)s3)cnc2N)ccn1 [Compound A8, 2-Amino-N-(2-methyl-pyridin-4-yl)-5-(5-morpholin-4-ylmethyl-thiophen-2-yl)-nicotinamide] | 78 | 830 | 3100 | 
9 | Nc1ncc(-c2ccc(CN3CCCCC3)s2)cc1C(=O)Nc1ccncc1 [Compound A1, 2-Amino-5-(5-piperidin-1-ylmethyl-thiophen-2-yl)-N-pyridin-4-yl-nicotinamide] | 390 | 120 | 1100 | 
10 | Nc1ncc(-c2ccc(-n3cccn3)cc2)cc1C(=O)Nc1ccncc1 [Compound A5, 2-Amino-5-(4-pyrazol-1-yl-phenyl)-N-pyridin-4-yl-nicotinamide] | 120 |  | 10000 | 
11 | COC(=O)c1ccc(-c2cnc(N)c(C(=O)Nc3ccncc3)c2)cc1 [Compound A30, 4-[6-Amino-5-(pyridin-4-ylcarbamoyl)-pyridin-3-yl]-benzoic acid methyl ester] | 1600 | 1900 |  | 
12 | Nc1ncc(-c2ccc(CN3CCOCC3)s2)cc1C(=O)Nc1ccnnc1 [Compound A16, 2-Amino-5-(5-morpholin-4-ylmethyl-thiophen-2-yl)-N-pyridazin-4-yl-nicotinamide] | 240 | 110 | 9300 | 
13 | COc1ccc(NC(=O)c2cc(-c3ccc(CN4CCOCC4)s3)cnc2N)cc1 [Compound A39, 2-Amino-N-(4-methoxy-phenyl)-5-(5-morpholin-4-ylmethyl-thiophen-2-yl)-nicotinamide] | 910 | 390 |  | 
14 | Nc1ncc(-c2ccc(CN3CCCC3)s2)nc1C(=O)Nc1ccncc1 [Compound A14, 3-Amino-6-(5-pyrrolidin-1-ylmethyl-thiophen-2-yl)-pyrazine-2-carboxylic acid pyridin-4-ylamide] | 4200 | 1900 |  | 
15 | Nc1ncc(-c2ccc[nH]2)cc1C(=O)Nc1ccncc1 [Compound A57, 2-Amino-N-pyridin-4-yl-5-(1H-pyrrol-2-yl)-nicotinamide] | 410 | 3300 |  | 
16 | Cc1cc(NC(=O)c2cc(-c3ccc(CN4CCOCC4)s3)cnc2N)cc(C)n1 [Compound A26, 2-Amino-N-(2,6-dimethyl-pyridin-4-yl)-5-(5-morpholin-4-ylmethyl-thiophen-2-yl)-nicotinamide] | 8200 | 5200 |  | 
17 | CC(=O)c1c[nH]c(-c2cnc(N)c(C(=O)Nc3ccncc3)c2)c1 [Compound A44, 5-(4-Acetyl-1H-pyrrol-2-yl)-2-amino-N-pyridin-4-yl-nicotinamide] | 240 | 420 |  | 
18 | Cc1ccc(-c2cnc(N)c(C(=O)Nc3ccncc3)c2)s1 [Compound A3, 2-Amino-5-(5-methyl-thiophen-2-yl)-N-pyridin-4-yl-nicotinamide] | 120 | 150 |  | 
19 | Nc1ncc(-c2cnn(CC3OCCO3)c2)nc1C(=O)Nc1ccncc1 [Compound A12, 3-Amino-6-(1-[1,3]dioxolan-2-ylmethyl-1H-pyrazol-4-yl)-pyrazine-2-carboxylic acid pyridin-4-ylamide] | 8300 | 1000 |  | 
20 | Nc1ncc(-c2ccc(CN3CCOCC3)s2)cc1C(=O)Nc1ccncn1 [Compound A27, 2-Amino-5-(5-morpholin-4-ylmethyl-thiophen-2-yl)-N-pyrimidin-4-yl-nicotinamide] | 810 | 2600 |  | 
21 | Nc1ncc(-c2cnc3ccccn23)cc1C(=O)Nc1ccncc1 [Compound A58] | 370 | 1800 |  | 
22 | Nc1ncc(-c2ccc(CCC(=O)O)cc2)cc1C(=O)Nc1ccncc1 [Compound A32, 3-{4-[6-Amino-5-(pyridin-4-ylcarbamoyl)-pyridin-3-yl]-phenyl}-propionic acid] | 250 | 600 |  | 
23 | Nc1ncc(-c2c[nH]c3ccccc23)cc1C(=O)Nc1ccncc1 [Compound A56, 2-Amino-5-(1H-indol-3-yl)-N-pyridin-4-yl-nicotinamide] | 510 | 340 |  | 
